Assay [1] concerns DNP-specific serum antibodies. The experiment in a line: Takatsy test for DNP-specific serum antibodies (humoral immune response). The assay is classed as in vivo, guinea pig. The conditions noted are these: difference to control group; blood taken 14 days after DNFB. The protocol:
After immunization with DNFB, dinitrophenyl (DNP)-specific humoral antibodies, which preferentially belong to the IgG1 substance class, are developed in guinea pigs. Blood was taken from the experimental animals by puncture of the heart fourteen days after the primary epicutaneous application of DNFB. The antibody (AB) concentration was determined according to the method described by G. Takatsy: A New Method for the Preparation of Serial Dilutions in a Quick and Accurate Way, (Kiserletes Orvostudomany, Hungary, Vol. 2, 1950, pp. 263-396). TNP-laden sheep erythrocytes were used as indicator cells coupled according to Rittenberg and Pratt (M. B. Rittenberg, and K. L. Pratt, Antitrinitrophenyl Plaque Assay. Primary Response of BALB/c Mice to Soluble and Particulate Immunogen, Proc. Soc. Exp. Biol. Med., Vol. 132, 1969, pp. 575-579).
(§1) The degree of sensitization in percent and the concentration of serum antibodies expressed as antibody titer difference is compared below to the respective control group (screening values).
(§2) A contact dermatitis value of 120 or more, i.e. corresponding to an at least 20% increase compared to the control, or of less than 80 are taken as proof of a stimulatory or suppressor effect, respectively. Antibody values of >+1 or <-1 illustrate the stimulatory or suppressor effect, respectively, of the substances on the humoral response.

In assay [2] the test system is SE-specific rosette-forming cells (RFC). The experiment in a line: Rosette test (SE-specific rosettes). The following applies: oral administration. The assay is classed as in vivo, mouse (inbred CBA strain). The protocol:
The testing of immunostimulatory effects was also conducted on the mouse (inbred CBA strain) by detection through the plaque test for detecting SE (sheep erythrocyte) -specific immunoglobulin M (IgM) and immunoglobulin G (IgG) PFC (plaque forming cells), and by the rosette test.
2.2 Rosette Test (SE-specific rosettes)
According to Burnet's Theory, lymphocytes carry immunoglobulin receptors on their surface. These receptors are directed against a particular antigen and are detectable by a reaction with the specific antigen. The determination of the number of rosette-forming cells (RFC) can serve as a measure of the strength of an incipient immune reaction and consequently also reproduce the effects of a suppression or stimulation of cell-proliferative processes.
Three days after the intravenous immunization with 2×10^5 SE in 0.2 ml physiological salt solution, the experimental animals were killed by hyperdistention, the spleen was removed and, after addition of Parker medium at pH 7.4, rubbed through Muller gauze. The work to recover the cell suspension was carried out in an ice-cooled water bath from about 0° C. to about 4° C. The determination of the cell density was carried out in a Neubauer counting chamber. Next, the cell count was adjusted to 1×10^7 nuclei-containing cell (NCC) per ml of medium, a count that was kept constant for all experimental formulations. Of this spleen cell suspension (1×10^7 NCC/ml), 0.9 ml were then mixed with 0.1 ml of a 5% washed SE suspension and incubated for 24 hours at 4° C. An NCC, which was surrounded by at least 4 erythrocytes and was identifiable, was rated as a rosette.

Assay [3] has as its system effector T lymphocyte activity (contact hypersensitivity). In words: Percutaneous test for detecting delayed contact hypersensitivity (contact dermatitis) after DNFB immunization. The following applies: Cavia porcellus, Control: 100, oral 2 mg/kg daily. The assay is classed as in vivo, guinea pig.
Description: 1.1 Percutaneous test for detecting contact hypersensitivity
The epicutaneous application of dinitrofluorobenzene (DNFB) led to the development of a delayed hypersensitivity in guinea pigs and mice, an immune status, which is linked to the clonal reproduction of antitrinitrophenyl (TNP)-specific T lymphocytes (TDTH -ly). If, after a latency period of at least 5 days, there is a renewed application of DNFB, lymphokines are released through the reaction with the TDTH -ly of this region of the skin and thus lead to a locally limited inflammatory reaction.
Seven days after the immunization with 1% DNFB, the sides of the experimental animals were depilated and tested by the application of one drop each of the 0.5%, 0.1%, 0.05, 0.025% and 0.01% DNFB solution. […] The test results are obtained from the severity and number of the positive skin reactions, and the stimulation index (SI) is obtained from the comparison of test animals and control animals.
The test substance is orally administered. A daily dose of 2 mg/kg of body weight, as an aqueous suspension, was administered daily by a stomach tube. Duration of treatment: 1 day+1 (one day after the immunization), up to +6. The control animals received only the lactose content of the composition.
as §1, §2

[4] abbreviates: 24 h, day +1 to +6, read-out: Contact dermatitis, 24-hour reaction.
Where [5] appears, read: 48 h, day +1 to +6, read-out: Contact dermatitis, 48-hour reaction.

Here are results for twelve molecules from patent US5306721A (priority 1990, dated 1994).

Where two headings read alike, the source gives them in different places.

In the case of `O=c1[nH]c2ccccc2c(=O)n1CCCS` [Example 6, 3-(3-Mercapto-propyl)-quinazoline-2,4(1H,3H)-dione], the “DNP-specific antibodies (antibody titer difference)” value in assay [1] is given as -1.5. In addition, the “production of SE-specific rosette-forming cells” value in assay [2] was “significant production of SE-specific rosette-forming cells”. Moreover, the results for the response vs control in vivo at 2 mg/kg in assay [3] (setting [4]) and in assay [3] (setting [5]) were 70% and 40%, respectively.
Take `O=c1[nH]c2ccc(Cl)cc2c(=O)n1CCS` [Example 13, 6-chloro-3-(2-mercapto-ethyl)-quinazoline-2,4(1H,3H)-dione]: the response vs control in vivo at 2 mg/kg in assay [3] (setting [4]) was found to be 120%; in assay [3] (setting [5]) it was 130%.
On the same counts, the results for `CC(S)Cn1c(=O)[nH]c2ccc(F)cc2c1=O` (stereo not drawn) [Example 14d, 6-Fluoro-3-(2-mercapto-propyl)-quinazoline-2,4(1H,3H)-dione] are 100% and 150%.
On the same counts, the results for `O=c1[nH]c2ccc(F)cc2c(=O)n1CCS` [Example 14c, 6-Fluoro-3-(2-mercapto-ethyl)-quinazoline-2,4(1H,3H)-dione] are 90% and 105%.
`CC(S)Cn1c(=O)[nH]c2ccccc2c1=O` (stereo not drawn) [Example 7, 3-(2-mercapto-propyl)-quinazoline-2,4(1H,3H)-dione]: the “DNP-specific antibodies (antibody titer difference)” value in assay [1] was “+1.8”. Further, in assay [3] (setting [4]), the response vs control in vivo at 2 mg/kg is 230%.
On to `O=c1[nH]c2ccc(Br)cc2c(=O)n1CCCS` [Example 14b, 6-Bromo-3-(3-mercapto-propyl)-quinazoline-2,4(1H,3H)-dione], for which the “DNP-specific antibodies (antibody titer difference)” value in assay [1] is given as “+2.2”. Besides, the response vs control in vivo at 2 mg/kg in assay [3] (setting [4]) was 105%; in assay [3] (setting [5]), 100%.
For the molecule `COc1cc2[nH]c(=O)n(CC(C)S)c(=O)c2cc1OC` (stereo not drawn) [Example 14e, 6,7-Dimethoxy-3-(2-mercapto-propyl)-quinazoline-2,4(1H,3H)-dione], in assay [2], the “production of SE-specific rosette-forming cells” value was “significant production of SE-specific rosette-forming cells”. Also, in assay [3] (setting [4]), the response vs control in vivo at 2 mg/kg came to 100%.
As for `O=c1[nH]c2ccc(Br)cc2c(=O)n1CCS` [Example 5, 6-bromo-3-(2-mercaptoethyl)-quinazoline-2,4(1H,3H)-dione], the “DNP-specific antibodies (antibody titer difference)” value in assay [1] is on record as -0.6. The results for the response vs control in vivo at 2 mg/kg in assay [3] (setting [4]) and in assay [3] (setting [5]) were 150% and 120%, respectively.
Consider `O=c1[nH]c2ccc(Cl)cc2c(=O)n1CCCS` [Example 8, 6-chloro-3-(3-mercapto-propyl)-quinazoline-2,4(1H,3H)-dione], for which the response vs control in vivo at 2 mg/kg in assay [3] (setting [4]) turned out to be 100%; in assay [3] (setting [5]), 115%.
For the molecule `Cc1ccc2[nH]c(=O)n(CCCS)c(=O)c2c1` [Example 12, 6-methyl-3-(3-mercapto-propyl)-quinazoline-2,4(1H,3H)-dione], the “DNP-specific antibodies (antibody titer difference)” value in assay [1] was “+0.3”. The response vs control in vivo at 2 mg/kg came out at 120% in assay [3] (setting [4]) and 130% in assay [3] (setting [5]).
For `COc1cc2[nH]c(=O)n(CCS)c(=O)c2cc1OC` [Example 3, 3-(2-mercapto-ethyl)-6,7-dimethoxy-quinazoline-2,4(1H,3H)-dione], in assay [1], the “DNP-specific antibodies (antibody titer difference)” value is reported as “+1.0”. Also, the response vs control in vivo at 2 mg/kg in assay [3] (setting [4]) stood at 100%.
For the molecule `Cc1ccc2[nH]c(=O)n(CCS)c(=O)c2c1` [Example 14a, 6-Methyl-3-(2-mercapto-ethyl)-quinazoline-2,4(1H,3H)-dione], in assay [1], the “DNP-specific antibodies (antibody titer difference)” value is -1.9. Moreover, the response vs control in vivo at 2 mg/kg in assay [3] (setting [4]) and in assay [3] (setting [5]) was 60% each time.
